Series [1] has as its system gene-editing MTAP-/- human colon cancer cell strain HCT116. In words: Efficacy in MTAP-/- HCT116 subcutaneous xenograft mouse model. The following applies: 50 mg/kg, PO, qd, 28 days. Format: in vivo, Balb/c nude mice. As to the method: The blank group contained 40% PEG400 normal saline with 2% DMSO. […] The test substance was intragastrically administered at 10 mg/kg once daily, and MRTX1719 was intragastrically administered at 50 mg/kg once daily. Model control: The vehicle (2% DMSO + 40% PEG400 + 58% normal saline) was intragastrically administered at a dose of 10 mL/kg once daily. Administration was performed for 28 days in total. […] The mice were euthanized on the day when the last administration was completed. […] In the formula, VTt represents the tumor volume of the treatment group at each measurement, and VT0 represents the tumor volume measured when the treatment group is grouped; VCt represents the tumor volume of the vehicle group at each measurement (same as VTt), and VC0 represents the tumor volume measured when the vehicle group is grouped. Data were analyzed using GraphPad Prism 9.0 software and expressed as Mean ± SEM (standard error). Pairwise comparisons between each administration group and the control group were performed using one-way analysis of variance (ANOVA). Variance homogeneity was determined using the Brown-Forsythe method, and variance heterogeneity was determined using the Dunnett's T3 method. Table 7. Efficacy evaluation in HCT116 subcutaneous xenograft mouse model

The nature of series [2]: PK experiment in rats. The following applies: rat; SD male rats, PO 10 mg/kg, vehicle 0.5% MC/0.2% Tween 80, plasma. Format: in vivo. Here is the method: The samples were analyzed by LC-MS/MS. […] Table 6. Pharmacokinetic parameters for rats
Series [3] addresses T1, hERG (Homo sapiens, UniProt Q12809).
T1 construct: purchased ThermoFisher Scientific PV5365
In words: hERG test (Predictor hERG Fluorescence Polarization Assay Kit). Format: binding. Here is the method: Predictor™ hERG Fluorescence Polarization Assay Kit (ThermoFisher Scientific, PV5365).
The procedures in the kit instructions were followed: 4× Predictor™ hERG Tracer Red, 4× E-4031, and 4× test substance solutions (final assay concentration: 10 µM) were prepared in advance. 5 µL Predictor™ hERG FP Assay Buffer and 5 µL Predictor™ hERG Membrane were added sequentially to the Assay Blank group in a 384-well plate. 2.5 µL Predictor™ hERG FP Assay Buffer, 2.5 µL of 4× E-4031, and 2.5 µL of 4× test substance were added to the negative control group, the positive control group, and the test substance group, respectively, and then 5 µL Predictor™ hERG Membrane and 2.5 µL of 4× Predictor™ hERG Tracer Red were sequentially added. The total volume of the experimental system was 10 µL, and three duplicate wells were set for each group. After loading, the plate was gently tapped to mix well and incubated at room temperature (25 °C) in the dark for 3.5 h. After the incubation was completed, the fluorescence polarization value mP was measured on a microplate reader, and G Factor was 2.14.
The inhibition rate of the test substance was calculated using the following formula: [formula]

Series [4] relates to human large cell lung cancer cell line LU99. Description: Efficacy in LU99 xenograft mouse model. It is filed as in vivo, Balb/c nude mice. The conditions noted are these: 50 mg/kg, PO, qd, 28 days. As to the method:
The human large cell lung cancer cell line LU99 was purchased from Nanjing Cobioer Biosciences Co., Ltd. (CBP61512) and cultured in RPMI-1640 medium (Gibco) containing 10% fetal bovine serum (Gibco); the test substances were prepared into suspensions at concentrations of 0.3 mg/mL, 1 mg/mL, and 5 mg/mL using a 0.5% aqueous MC solution containing 0.2% Tween 80. Reference Example 6 (MRTX1719) was prepared into a 5 mg/mL clear solution using 40% PEG400 normal saline containing 2% DMSO.
LU99 cells in the logarithmic growth phase were digested, collected, and counted, and the cell density was adjusted to 2 × 10^7 cells/mL using a 1:1 serum-free medium and matrigel (Corning). 18-20 g of Balb/c nude mice (Beijing Huafukang Biotechnology Co., Ltd.) were inoculated subcutaneously with 100 µL of cell suspension per mouse. On day 12 after inoculation, animals with a mean tumor volume of 116 mm^3 were randomly grouped, with 7 animals in each group. The test substances were intragastrically administered at 3 mg/kg, 10 mg/kg, and 50 mg/kg once daily, and MRTX1719 was intragastrically administered at 50 mg/kg once daily. A vehicle (2% DMSO + 40% PEG400 + 58% normal saline) was intragastrically administered to the blank group at a dose of 10 mL/kg once daily. Administration was performed for 28 days in total.
After the animals were inoculated with LU99 cells, the tumor volume was measured 2-3 times a week, and the tumor volume was calculated based on length × width^2 × 0.5. On the day when the last administration was completed, except for the mice with tumor regression, which were subjected to discontinuation observation, the remaining mice were euthanized.
In the formula, VTt represents the tumor volume of the treatment group at each measurement, and VT0 represents the tumor volume measured when the treatment group is grouped; VCt represents the tumor volume of the model control group at each measurement, and VC0 represents the tumor volume measured when the model control group is grouped.
Data were analyzed using GraphPad Prism 9.0 software and expressed as Mean ± SEM (standard error). Pairwise comparisons between each administration group and the model control group were performed using one-way analysis of variance (ANOVA). Variance homogeneity was determined using the Brown-Forsythe method, and variance heterogeneity was determined using the Dunnett's T3 method. Table 8. Efficacy evaluation in LU99 xenograft mouse model

The nature of series [5]: PK experiment in mice. The following applies: mouse, plasma, po, 10 mg/kg.
Description: Experimental materials: the experimental animals were healthy adult female BALB/c mice (provided by Sichuan Vital River Laboratory Animal Technology Co., Ltd.).
Administration mode and sample collection in mice: BALB/c female mice received oral intragastrical administration (10 mg/kg, vehicle: 0.5% methylcellulose/0.2% Tween 80), and 60 µL of whole blood from the venous plexus of the fundus of the mice at different time points was collected at 0.25 h, 0.5 h, 1 h, 2 h, 4 h, 6 h, 8 h, and 24 h after administration and centrifuged at 4000 rpm for 6 min to collect plasma.
10 µL of mouse plasma sample was added to 190 µL of acetonitrile solution containing an internal standard to precipitate protein. The mixture was vortexed for 10 min and centrifuged at 4000 rpm for 10 min. The supernatant was collected and added to a 96-well plate. The samples were analyzed by LC-MS/MS. The drug concentrations in the plasma of mice at different time points after intragastric administration of the example compounds were measured by an LC-MS/MS method, and the related pharmacokinetic parameters were calculated, such that the pharmacokinetic behavior of the compounds in the mice was studied, and the pharmacokinetic characteristics were evaluated.
The target in series [6] is T2, CYP450 enzyme 3A4 (Homo sapiens, UniProt P08684).
T2 construct: Liver microsomes (purchased from BIOIVT, Cat. No.: X008070); tissue BIOIVT X008070; host or cells: human liver microsomes
T2 sequence (P08684 whole entry): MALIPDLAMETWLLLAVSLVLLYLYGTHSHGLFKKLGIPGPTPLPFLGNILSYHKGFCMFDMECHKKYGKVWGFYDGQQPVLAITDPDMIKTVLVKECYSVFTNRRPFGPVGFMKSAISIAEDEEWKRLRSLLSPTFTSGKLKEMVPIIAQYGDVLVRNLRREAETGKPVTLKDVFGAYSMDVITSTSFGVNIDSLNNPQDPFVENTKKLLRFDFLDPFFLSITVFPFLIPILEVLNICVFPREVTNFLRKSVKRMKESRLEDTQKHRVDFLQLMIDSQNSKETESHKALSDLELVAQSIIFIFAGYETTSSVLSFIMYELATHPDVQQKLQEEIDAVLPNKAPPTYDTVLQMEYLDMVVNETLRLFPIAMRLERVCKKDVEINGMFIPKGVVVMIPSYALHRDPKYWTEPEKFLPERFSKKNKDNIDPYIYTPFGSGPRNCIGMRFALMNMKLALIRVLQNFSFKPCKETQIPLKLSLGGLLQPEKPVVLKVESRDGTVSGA
Description: CYP inhibition test in human liver microsomes. It is filed as in vitro ADME. The following applies: human liver microsomes 0.1 mg/mL. Here is the method:
Experimental materials: human liver microsomes (purchased from BIOIVT);
PBS: 0.1 M KH2PO4 and K2HPO4 buffers, pH 7.4.
MgCl2: a certain amount of MgCl2 was weighed out and prepared into a 20 mM MgCl2 solution with PBS.
NADPH (Chinese name: reduced nicotinamide adenine dinucleotide phosphate, purchased from Sigma, Cat. No.: 481973-500 mg): a certain amount of NADPH was weighed out and a 5 mM solution of NADPH was prepared with a 20 mM MgCl2 solution, and the final incubation concentration was 1 mM.
Compounds: 3 mM, 1 mM, 0.3 mM, 0.1 mM, 0.03 mM, 0.01 mM, and 0 mM solutions of the test compounds were prepared with a DMSO-methanol (v:v = 1:9) solution, and the final incubation concentrations were 30 µM, 10 µM, 3 µM, 1 µM, 0.3 µM, 0.1 µM, and 0 µM. 30 µM, 10 µM, 3 µM, 1 µM, 0.3 µM, and 0 µM solutions of the positive compound (ketoconazole) were prepared with a DMSO-methanol (v:v = 1:9) solution, and the final incubation concentrations were 0.3 µM, 0.1 µM, 0.03 µM, 0.01 µM, 0.003 µM, and 0 µM.
Substrate working solutions: 200 µM and 15 µM solutions of substrate working solutions (testosterone and midazolam) were prepared with PBS, separately, and the final incubation concentrations were 40 µM and 3 µM.
Liver microsomes (purchased from BIOIVT, Cat. No.: X008070): the liver microsomes were diluted to […] with PBS, and the final incubation concentration was 0.1 mg/mL.
The prepared test compounds or positive compounds were added to a 96-well plate, and then the prepared human liver microsome working solution and substrate working solution were added. The mixture was mixed well. The mixture was pre-incubated in a thermostat incubator at 37 °C for 5 min, and then the prepared NADPH was added to start the reaction. The mixture was incubated for 5 min or 10 min. After the incubation was completed, a pre-cooled acetonitrile solution containing an internal standard was added to terminate the reaction. After protein precipitation, the mixture was vortexed for 5 min with shaking and then centrifuged at 4000 rpm for 10 min. The supernatant was collected and added to the 96-well plate. The content (peak concentration ratio) of the metabolites of the substrate was determined by an LC-MS/MS method. The residual activity and the half maximal inhibitory concentration (IC50) of the enzyme were calculated based on the detected content.
Percentage of remaining enzyme activity: The activity of each subtype of CYP450 enzyme was expressed as the amount of metabolite produced, and the percentage of remaining enzyme activity was calculated as follows: [formula]
The concentrations of the test substances and the corresponding residual activity percentages were fitted using a nonlinear model of Excel software, and the concentration of the test substances at which 50% inhibition of metabolite production was achieved was the IC50 value.

Like-named read-outs stand apart in the source and are kept apart here. Where only a bound is given, the exact number is not on record here.

T1 sequence (Q12809 whole entry): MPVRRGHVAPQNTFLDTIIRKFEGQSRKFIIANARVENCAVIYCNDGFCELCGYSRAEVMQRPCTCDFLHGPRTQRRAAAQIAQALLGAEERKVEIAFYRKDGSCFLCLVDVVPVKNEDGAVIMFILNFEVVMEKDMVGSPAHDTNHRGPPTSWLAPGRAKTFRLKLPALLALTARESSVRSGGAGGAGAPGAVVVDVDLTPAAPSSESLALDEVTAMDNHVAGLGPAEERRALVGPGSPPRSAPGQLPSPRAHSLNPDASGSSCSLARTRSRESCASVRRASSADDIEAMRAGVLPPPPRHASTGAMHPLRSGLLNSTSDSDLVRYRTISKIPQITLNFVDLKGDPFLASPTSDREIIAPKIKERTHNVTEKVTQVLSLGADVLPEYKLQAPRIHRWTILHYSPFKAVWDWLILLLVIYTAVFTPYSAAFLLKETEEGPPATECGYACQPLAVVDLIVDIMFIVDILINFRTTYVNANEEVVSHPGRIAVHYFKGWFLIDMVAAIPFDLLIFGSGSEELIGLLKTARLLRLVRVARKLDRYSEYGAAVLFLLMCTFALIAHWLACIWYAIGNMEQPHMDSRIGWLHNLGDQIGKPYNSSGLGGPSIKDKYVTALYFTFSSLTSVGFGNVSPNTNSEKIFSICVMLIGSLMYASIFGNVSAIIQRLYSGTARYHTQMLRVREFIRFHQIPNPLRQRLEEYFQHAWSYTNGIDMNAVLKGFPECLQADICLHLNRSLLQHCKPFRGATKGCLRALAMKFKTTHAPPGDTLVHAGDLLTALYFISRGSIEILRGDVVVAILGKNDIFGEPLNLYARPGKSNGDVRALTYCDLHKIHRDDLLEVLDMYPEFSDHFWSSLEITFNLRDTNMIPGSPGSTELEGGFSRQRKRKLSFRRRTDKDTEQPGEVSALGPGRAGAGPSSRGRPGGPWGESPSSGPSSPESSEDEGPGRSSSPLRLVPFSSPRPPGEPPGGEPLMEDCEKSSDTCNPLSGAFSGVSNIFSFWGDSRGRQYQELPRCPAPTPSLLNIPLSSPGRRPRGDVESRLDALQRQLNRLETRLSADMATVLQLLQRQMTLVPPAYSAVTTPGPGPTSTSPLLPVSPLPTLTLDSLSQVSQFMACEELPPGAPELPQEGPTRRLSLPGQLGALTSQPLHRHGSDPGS

For orientation: TGI means the reduction of tumour growth relative to the control group. Higher therefore signals much slowing of growth. Usually AUC(0-t) stands for the area under the concentration-time curve up to a stated or last time point. Broadly, the Cmax is the peak of the concentration-time curve. The inhibition is how much of the control response was suppressed. As usually defined, the IC50 is the concentration that gives 50% inhibition. Turning to `Cn1ncc(-c2ccc3c(=O)[nH]nc(CN)c3c2)c1-c1c(F)c(Cl)cc(OC2CC2)c1C#N` (atropisomer, axis not shown) [Reference Example 6, reference compound], the inhibition of tumour growth (TGI) in series [1] worked out at 72.21%; in series [4] it was 90.96%. The Tumor volume is 525.74 mm^3 in series [1] and 279.68 mm^3 in series [4]. The AUC(0-t) in series [2] came out at 0.1 ± 0.103 µg·h/mL; in series [5], 1.97 ± 0.316 µg·h/mL. In addition, the highest concentration (Cmax) turned out to be 0.107 ± 0.149 µg/mL in series [2] and 0.428 ± 0.22 µg/mL in series [5]. The inhibition at 3.5 h, 10 µM in series [3] (herg membrane fluorescence polarization, 10 µM test substance, three duplicate wells) is 77.4%. Further, the concentration for half-maximal inhibition (IC50) is under 10 µM in series [3] (only 10 µM tested); 2.13 µM in series [6] (substrate midazolam 3 µM, read-out: IC50 3A4-Midazolam); 1.95 µM in series [6] (substrate testosterone 40 µM, read-out: IC50 3A4-Testosterone).

(Values after patent EP4755886A1 (Chengdu Chipscreen Pharmaceutical Ltd., priority 2023, dated 2025).)
